Entries after “also recorded” stand apart in the source; their conditions may differ.
Legend:
Assay type in all cases: in vivo, mouse
[1] = system: mice receiving a controlled cortical impact traumatic brain injury (TBI); test: Y-maze assessment after TBI
Method: (§1) Surgical procedures and controlled cortical impact (CCI) have been previously described (see Portbury et al., 2015, Metallomics. doi:10.1039/c5mt00234f). Briefly, 3 month-old male C57B16 mice were anesthetized via intraperitoneal injection of 100 mg/kg ketamine and 10 mg/kg xylazine. A 10 mm mid-line incision was made over the skull, and the skin and fascia were reflected to make a 4 mm craniotomy on the central aspect of the right parietal bone using a motorized drill. Upon animal positioning in a stereotaxic frame a CCI injury was subsequently delivered (3 m/s velocity with a 1.5 mm penetration depth).
(§2) Three groups of animals were subjected to TBI as separate experiments. The first group of animals were treated daily with 2% trehalose in SSV solution at 0.1 ml per 10 g body weight via oral gavage for a period of 31 days or SSV solution following the TBI. […] The second groups of animals underwent an identical dosing procedure but were treated with either SSV or maltose as a disaccharide control for trehalose. […] A further group of animals was pre-treated with trehalose prior to TBI. These pre-treated mice received a daily treatment of 2% trehalose in SSV solution at 0.1 ml per 10 g body weight via oral gavage for 7 days prior to TBI. Following TBI, these animals received SSV solution only for the remaining duration of the experiment.
(§3) The Morris Water Maze (MWM) was used to assess the effect of trehalose on spatial learning and memory function following TBI. The pre-training acclimation day of the water maze was performed on day 23 of dosing, followed by six days of place discrimination training of four 90 second trials per day, conducted on days 24-29 of dosing. The probe trial was performed 24 hours after training on dosing day 30 to assess retention of the task. Data was analysed using the Ethovision automated tracking system. Animals were culled on day 31. Both experimental groups adhered to the same time lines of behavioral assessment. The open field assessment was performed on day 19 of dosing and the Y-maze assessment was performed on day 21 of dosing.
(§4) For LA-ICPMS samples, statistical analysis was carried out in Prism 7 (Graph-Pad) software. Analysis was carried out with a two-tailed t test with the level of significance set at p=0.05. For multiple comparisons two-way ANOVA was used to identify significant differences between ipsilateral and contralateral ROI's. For western blot analysis, images were produced using Image Studio Lite (version 4.0.21, LI-COR Biosciences) and subsequent statistical analysis was carried out in Prism 7 (Graph-Pad). All behavioral analysis was performed using Prism 7 (Graph-Pad).

[2] = system: mice receiving a controlled cortical impact traumatic brain injury (TBI); test: Morris water maze after controlled cortical impact TBI
Method: Trehalose (Sigma) has a generous safety profile in rodents and humans has been posted as “Generally Regarded as Safe” (GRAS) for human consumption by the U.S. Federal Drug Administration (FDA) in October 2000, is used as a food additive, and is also an excipient in many pharmaceuticals, making trehalose a safe, natural and pharmaceutically accepted product. In this study, it was supplied as a 2% w/v in standard suspension vehicle (SSV) solution via oral gavage at a dose of 0.1 ml to 10 g body weight. SSV solution was purchased from Sigma and contains 0.9% sodium chloride (NaCl), 0.5% Sodium carboxymethylcellulose (Na-CMC), 0.5% Benzyl alcohol, 0.4%, Tween 80 (polyoxyethylenesorbitan monooleate).
as §1, §2, §3, §4

LC3 = test: Autophagy by LC3 western blot after TBI; conditions: between trehalose, SSV and maltose treated groups after TBI
Method: as §2
For the behaviorally assessed animals the cortex and hippocampus of both ipsilateral and contralateral hemispheres were homogenized in 15 volumes of ice-cold PBS containing Complete Protease Inhibitor Cocktail tablets (Roche Applied Science, Indianapolis, Ind., USA) and subsequently centrifuged (100,000×g) for 30 minutes at 4° C. Supernatant was removed to yield the soluble fraction (S1). […] Protein concentrations were determined using Pierce BCA protein assay (Pierce Biotechnology, Rockford, Ill., USA) to ensure equal loading of 10 μg protein samples on gel. […]

synaptophysin [3] = test: Western blot of brain tissue after TBI: synaptophysin
Method: as §2
(§5) For the behaviorally assessed animals the cortex and hippocampus of both ipsilateral and contralateral hemispheres were homogenized in 15 volumes of ice-cold PBS containing Complete Protease Inhibitor Cocktail tablets (Roche Applied Science, Indianapolis, Ind., USA) and subsequently centrifuged (100,000×g) for 30 minutes at 4° C. Supernatant was removed to yield the soluble fraction (S1). Remaining pellet underwent further extraction via 30 minutes of vigorous agitation in above mentioned homogenization buffer containing 2% (vol/vol) Triton X100. Insoluble material was pelleted via centrifugation (20,000×g) for 20 minutes, and supernatant was retained as the membrane fraction (P1). Protein concentrations were determined using Pierce BCA protein assay (Pierce Biotechnology, Rockford, Ill., USA) to ensure equal loading of 10 μg protein samples on gel. Samples were prepared for PAGE by the addition of 4× protein sample loading buffer (LICOR, Lincoln, Nebr., USA) and 10× NuPAGE sample reducing agent (to a final 1× concentration). Samples were heated to 70° C. for 10 min, loaded onto Bolt 4-12% Bis-Tris Plus gels (Invitrogen-Life Technologies, Grand Island, N.Y., USA) along with Licor One-Color protein molecular weight markers (LICOR, Lincoln, Nebr., USA) and run at 125 V for 60 min in appropriately diluted Bolt MES SDS 20× running buffer (Invitrogen-Life Technologies, Grand Island, N.Y., USA). Gels were transferred to Immobilon—PF, PVDF membrane (Millipore) using the Invitrogen Bolt wet-gel Transfer Device (Invitrogen-Life Technologies, Grand Island, N.Y., USA) at 15 V for 60 min in appropriately diluted 20× Bolt transfer buffer (Invitrogen-Life Technologies, Grand Island, N.Y., USA). […] Blots were rinsed in TBST and incubated with appropriate secondary antibody (1 h, RT), followed by further rinsing and imaged using a LI-COR Odyssey Imaging system (LI-COR Biosciences, Lincoln Nebr., USA), and analysed with Image Studio Lite software (LI-COR Biosciences, Lincoln Nebr., USA). […]

doublecortin (DCX) [4] = test: Doublecortin expression in Tg2576 brain; conditions: Tg2576 hippocampus; vs SSV littermates
Method: as §5, with “concentration).” for “concentration). Samples were heated to 70° C. for 10 min, loaded onto Bolt 4-12% Bis-Tris Plus gels (Invitrogen-Life Technologies, Grand Island, N.Y., USA) along with Licor One-Color protein molecular weight markers (LICOR, Lincoln, Nebr., USA) and run at 125 V for 60 min in appropriately diluted Bolt MES SDS 20× running buffer (Invitrogen-Life Technologies, Grand Island, N.Y., USA). Gels were transferred to Immobilon—PF, PVDF membrane (Millipore) using the Invitrogen Bolt wet-gel Transfer Device (Invitrogen-Life Technologies, Grand Island, N.Y., USA) at 15 V for 60 min in appropriately diluted 20× Bolt transfer buffer (Invitrogen-Life Technologies, Grand Island, N.Y., USA).”

[5] = system: brain derived neurotrophic factor (BDNF); test: Western blot of brain tissue after TBI: BDNF
Method: as §2
as §5, with “concentration).” for “concentration). Samples were heated to 70° C. for 10 min, loaded onto Bolt 4-12% Bis-Tris Plus gels (Invitrogen-Life Technologies, Grand Island, N.Y., USA) along with Licor One-Color protein molecular weight markers (LICOR, Lincoln, Nebr., USA) and run at 125 V for 60 min in appropriately diluted Bolt MES SDS 20× running buffer (Invitrogen-Life Technologies, Grand Island, N.Y., USA). Gels were transferred to Immobilon—PF, PVDF membrane (Millipore) using the Invitrogen Bolt wet-gel Transfer Device (Invitrogen-Life Technologies, Grand Island, N.Y., USA) at 15 V for 60 min in appropriately diluted 20× Bolt transfer buffer (Invitrogen-Life Technologies, Grand Island, N.Y., USA).”

doublecortin (DCX) [6] = test: Western blot of brain tissue after TBI: doublecortin
Method: as §2, §5

Tg2576 transgenic mice = test: Morris water maze in Tg2576 Alzheimer's disease model
Method: (§6) Transgenic Tg2576 mice were treated daily with 2% trehalose (0.1 ml/10 g body weight) in SSV (Sigma)(n=15, average age 16.2±3 months of age) via oral gavage or SSV (saline vehicle suspension) (n=12, 16±3 months of age). Mice were dosed for a period of 31 days, with the Morris water maze commencing on day 23 of dosing. Mice were culled on day 31, and DCX and synaptophysin expression were assessed.

synaptophysin [7] = test: Synaptophysin expression in Tg2576 brain
Method: as §5, with “USA).” for “USA). Gels were transferred to Immobilon—PF, PVDF membrane (Millipore) using the Invitrogen Bolt wet-gel Transfer Device (Invitrogen-Life Technologies, Grand Island, N.Y., USA) at 15 V for 60 min in appropriately diluted 20× Bolt transfer buffer (Invitrogen-Life Technologies, Grand Island, N.Y., USA).”
as §6, with “Mice were dosed for a period of 31 days, with the Morris water maze commencing on day 23 of dosing.” left out

Pro-BDNF = test: Western blot of brain tissue after TBI: Pro-BDNF
Method: as §2
as §5, with “concentration).” for “concentration). Samples were heated to 70° C. for 10 min, loaded onto Bolt 4-12% Bis-Tris Plus gels (Invitrogen-Life Technologies, Grand Island, N.Y., USA) along with Licor One-Color protein molecular weight markers (LICOR, Lincoln, Nebr., USA) and run at 125 V for 60 min in appropriately diluted Bolt MES SDS 20× running buffer (Invitrogen-Life Technologies, Grand Island, N.Y., USA). Gels were transferred to Immobilon—PF, PVDF membrane (Millipore) using the Invitrogen Bolt wet-gel Transfer Device (Invitrogen-Life Technologies, Grand Island, N.Y., USA) at 15 V for 60 min in appropriately diluted 20× Bolt transfer buffer (Invitrogen-Life Technologies, Grand Island, N.Y., USA).”

[8] = system: mice receiving a controlled cortical impact traumatic brain injury (TBI); test: Open field assessment after TBI; conditions: treated post-TBI, dosing day 19, vs SSV control
Method: as §1, §2, §3, §4

[9] = system: mice receiving a controlled cortical impact traumatic brain injury (TBI); test: Volumetric analysis of cortical tissue loss after TBI; conditions: treated after TBI; vs controls
Method: as §1, §2

[10] = pre-treated 7 days before TBI, vs SSV littermates
[11] = treated post-TBI, dosing day 21, vs SSV
[12] = treated post-TBI, dosing day 21, vs SSV, listed as Trehalose
[13] = contralateral cortex, vs SSV and maltose
[14] = contralateral cortex, vs SSV and maltose, listed as Trehalose
[15] = contralateral hippocampus or ipsilateral cortex and hippocampus

OC[C@H]1O[C@H](O[C@H]2O[C@H](CO)[C@@H](O)[C@H](O)[C@H]2O)[C@H](O)[C@@H](O)[C@@H]1O [trehalose]
five-minute frequency, Y-maze [1, 10]: performed significantly better
one-minute duration, Y-maze [1, 10]: performed significantly better
one-minute frequency, Y-maze [1, 10]: performed significantly better
five-minute duration, Y-maze ([1]; pre-treated 7 days before TBI, vs post-treatment and SSV mice): significantly outperformed both the trehalose post-treatment and SSV treated mice
five-minute frequency of visits into the novel arm, Y-maze [1, 11]: significantly enhanced
one-minute duration of time in the novel arm, Y-maze [1, 11]: significantly greater duration of time in the novel arm; also recorded: significant overall duration of time in the novel arm
one-minute frequency of visits into the novel arm, Y-maze [1, 11]: significantly enhanced
five-minute frequency of visits into the novel arm, Y-maze [1, 12]: significant overall frequency of visitation preference for the novel arm
one-minute frequency of visits into the novel arm, Y-maze [1, 12]: significant overall frequency of visitation preference for the novel arm
learning component, Morris water maze ([2]; pre-treated 7 days before TBI with 2% oral gavage, SSV only after TBI, vs SSV controls): outperformed SSV controls in the learning (FIG. 1a) component of the water maze trial, although not significantly
recall component, Morris water maze ([2]; pre-treated 7 days before TBI with 2% oral gavage, SSV only after TBI, vs post-treated mice and SSV controls): significantly outperform trehalose post-treated mice and SSV controls
escape latency / acquisition of the task (learning component), Morris water maze ([2]; treated post-TBI daily by oral gavage, 2% in SSV, 0.1 ml per 10 g, vs SSV controls, training on dosing days 24-29): overall significant performance improvement
probe day 24-hour task retention (recall component), Morris water maze ([2]; treated post-TBI daily by oral gavage, 2% in SSV, vs SSV controls, dosing day 30): overall significant performance improvement; also recorded: significant improvement in memory
enhancement in autophagy (LC3) (LC3): not detectable
synaptophysin protein expression (synaptophysin [3]; contralateral cortex, 31 days post-TBI, vs SSV and maltose controls): significantly elevated expression
synaptophysin protein expression (synaptophysin [3]; contralateral cortex, 31 days post-TBI, vs SSV and maltose controls, listed as Trehalose): significantly increased
synaptophysin protein expression (synaptophysin [3]; contralateral hippocampus, ipsilateral cortex and hippocampus): no significant elevation
synaptophysin protein expression (synaptophysin [3]; ipsilateral hippocampus, vs control groups): non-significant elevation
DCX protein expression (doublecortin (DCX) [4]): increased; also recorded: significant (p<0.0401) increase
BDNF protein [5, 13]: significant increase
BDNF protein [5, 14]: significantly increased
BDNF protein [5, 15]: not significantly elevated
DCX protein (doublecortin (DCX) [6]; contralateral cortex, vs SSV and maltose controls): significant increase
DCX protein (doublecortin (DCX) [6]; contralateral cortex, vs SSV and maltose controls, listed as Trehalose): significantly increases
DCX protein (doublecortin (DCX) [6]; contralateral hippocampus or ipsilateral cortex and hippocampus, vs control groups): absence of elevated DCX
DCX expression (doublecortin (DCX) [6]; ipsilateral cortex and hippocampus, vs SSV and maltose controls): significantly decreased
cognitive improvement in the Morris water maze (Tg2576 transgenic mice; 2% trehalose daily oral gavage for 31 days): significant cognitive improvement
escape latency, Morris water maze (Tg2576 transgenic mice; 2% trehalose daily oral gavage for 31 days, vs Tg2576 SSV littermates): significant decrease
time spent in the relevant quadrant, Morris water maze (Tg2576 transgenic mice; 2% trehalose daily oral gavage, vs SSV littermates): significant (p<0.0003) increase
synaptophysin protein expression (synaptophysin [7]; Tg2576 cortex, trehalose vs SSV): no significant difference
synaptophysin protein expression (synaptophysin [7]; Tg2576 hippocampus, vs SSV littermates): increased
synaptophysin protein expression (synaptophysin [7]; Tg2576 hippocampus, vs SSV littermates, listed as Trehalose): significant increase
pro-BDNF protein (Pro-BDNF; [13]): significant increase
pro-BDNF protein (Pro-BDNF; [14]): significantly increased
pro-BDNF protein (Pro-BDNF; [15]): not significantly elevated
ambulatory time, open field [8]: significant increase
ambulatory velocity, open field [8]: no significant difference
total ambulatory distance, open field [8]: significant increase
vertical counts, open field [8]: significant increase
ambulatory velocity, open field ([8]; listed as Trehalose): without a significant increase
cortical tissue loss [9]: no difference

Source: US11602538B2, “Prophylaxis and treatment of cognitive dysfunction and decline” (The Florey Institute of Neuroscience and Mental Health, priority 2017, dated 2023)
